Reference: publication PMC4217095 (Emerging Microbes & Infections, 2014)

Biological target: MDk/W452(H5N8) NA (Influenza A virus, UniProt A0A088CBR8)
Type: biochemical

SMILES	Sensitivity of virus to NA inhibitor (assessment of the IC50)
CCC(CC)[C@H](NC(C)=O)[C@@H]1[C@H](O)[C@@H](C(=O)O)C[C@H]1N=C(N)N [Peramivir, peramivir]	sensitive
CC(=O)N[C@H]1[C@H]([C@H](O)[C@H](O)CO)OC(C(=O)O)=C[C@@H]1N=C(N)N [Zanamivir, zanamivir]	sensitive
